{"source": "patent US20230002446A1", "about": "“ANTI-INFLAMMATORY AGENTS” (The University of Sydney, priority 2019, published 2023)", "key": {"[1]": {"tested_on": "primary murine splenic dendritic cells", "assay": "LPS-stimulated murine splenocytes, DC activation (flow cytometry)", "format": "cell-based", "description": "FIG. 5—Peptide administration reduces the activation of pro-inflammatory DCs and macrophages. (A) C57BL/6 murine splenocytes were stimulated with LPS±peptide RP23 (SEQ ID NO:12) and expression of activation markers on DCs was assessed by flow cytometry. (B) Bone marrow derived murine macrophages were incubated with peptide RP23 (30 mins) and stimulated with LPS (overnight). Positive controls were stimulated with LPS only. Negative controls were unstimulated. Inflammatory cytokine production was assessed by ELISA. (C) CD14+ cells were isolated from human blood and differentiated into macrophages by culturing with human serum. Cells were incubated with peptide RP23 (30 mins), then stimulated overnight with LPS (left panel) or imiquimod (right panel). Inflammatory cytokine (IL-6 or IL-12/23) production was assessed by ELISA. Representative of 6 donors. Data are presented as mean±S.E.M. Statistical significance was determined by ANOVA with Dunnett's multiple comparison test, *p<0.05, **p<0.01, ***p<0.001.\nUsing an in vitro culture system, it was determined whether RP23 could suppress the activity of specific pro-inflammatory immune cells. […] The culture of murine bone marrow derived macrophages with RP23 led to reduced IL-6, MCP-1 and TNF release after LPS-stimulation (FIG. 5b). […]"}, "[2]": {"tested_on": "full thickness human skin explants", "protocol": "RP23^AF594 in a stock emulsion was applied topically to full thickness human skin explants and cultured for 24 hours. Frozen sections were analysed by fluorescence microscopy.\nRP23^AF594 was formulated for topical application in an adapted stock emulsion consisting of dimethicone, liquid paraffin, 4-chloro-3-methylphenol, cetrimide and octadecan-1-ol. This was applied topically (7 mg/cm^2, 10 nmol RP23) to full thickness human skin explants and cultured for 24 hours. Frozen sections were prepared for and analysed by fluorescence microscopy."}, "mice": {"tested_on": "mice", "assay": "tolerability of injection in mice", "format": "in vivo", "details": "even 10 nmol daily for 6 days sub-cutaneous (data not shown)"}, "CD11c+ dendritic cells": {"tested_on": "CD11c+ dendritic cells", "assay": "MHCII on CD11c+ dendritic cells after intra-nasal instillation", "format": "in vivo, mice", "description": "FIG. 15. Mucosal delivery of RP23 to the lungs decreases activation of antigen presenting cells in the lungs and bronchoalveolar space. (A) C57BL/6 mice (n=5) received either PBS or RP23 by intra-nasal instillation or (B) C57BL/6 mice (n=4) received either PBS, scramble RP23 peptide, or RP23 by intra-nasal instillation, then 24 hours later, Pam2Cys-SK4-PEG(OH) intra-nasally to induce an inflammatory state. 24 hours later, cells from the bronchoalveolar lavage and perfused lungs were collected. The median fluorescence intensity of MHCII on CD11c^+ dendritic cells was determined by flow cytometry. Data are the means+/−SEM. Statistical significance was determined by (A) t-test, ***p<0.001 and (B) ANOVA with Dunnett's multiple comparison test to PBS control, *p<0.05.\nNaïve C57BL/6 mice (n=5) received either PBS or RP23 by intra-nasal instillation, then 24 hours later, cells from the bronchoalveolar lavage and perfused lungs were collected. The median fluorescence intensity of MHCII on CD11c+ dendritic cells was determined by flow cytometry. […] To determine if this effect would be maintained once potent lung inflammation was induced, C57BL/6 mice (n=4) received either PBS, scramble RP23 peptide, or RP23 by intra-nasal instillation, then 24 hours later, Pam2Cys-SK4-PEG(OH) was given intra-nasally to induce an inflammatory state."}, "C57BL/6 mice": {"tested_on": "C57BL/6 mice", "assay": "oxazolone murine model of atopic dermatitis", "format": "in vivo", "details": "injection at day -1, or both day -7 and day -1; compared to PBS", "from_the_text": "FIG. 13. RP23 treatment reduces inflammation in a murine model of atopic dermatitis. Ears and shaved backs of C57BL/6 female mice were sensitised (day 0) and challenged (day 7, 10, 14, 17, 19, 21, 23, 25 and 27) with topical application of the irritant oxazolone or vehicle only. Injection of mice with RP23 at day −1, or both day −7 and day −1, is compared to injection with PBS only (day −7 and day −1) or topical application of steroid (0.01% betamethasone dipropionate, 30 mgs) applied on the back at the time of every oxazolone application. Ear thickness was measured with manual callipers. Data are the means+/−SEM (n=5).\nEars and shaved backs of C57BL/6 female mice were sensitised (day 0) and challenged (day 7, 10, 14, 17, 19, 21, 23, 25 and 27) with topical application of the irritant oxazolone or vehicle only. Injection of mice with RP23 at day −1, or both day −7 and day −1, was compared to injection with PBS only (day −7 and day −1) or topical application of steroid (0.01% betamethasone dipropionate, 30 mgs) applied on the back at the time of every oxazolone application. Ear thickness was measured with manual callipers."}, "[3]": {"details": "Pam2Cys-SK4-PEG(OH) intra-nasally 24 hours after peptide"}}, "note": "Where a SMILES comes first, the peptide text is derived from it. [ ]: non-standard residue; d: D form. AEEA = NCCOCCOCC(=O)O"}
{"smiles": "CSCC[C@H](NC(=O)COCCOCCNC(=O)[C@H](CCCCN)NC(=O)[C@H](CCCCN)NC(=O)[C@H](CCCCN)NC(=O)[C@@H](N)CCCCN)C(=O)N[C@H](C(=O)N1CCC[C@H]1C(=O)NCC(=O)N[C@H](C(=O)N[C@@H](CCC(N)=O)C(=O)N[C@@H](CO)C(=O)N1CCC[C@H]1C(=O)N[C@@H](Cc1ccccc1)C(=O)N[C@@H](Cc1ccccc1)C(=O)N[C@@H](CC(C)C)C(=O)N[C@@H](CC(C)C)C(=O)N[C@@H](CC(C)C)C(=O)N[C@@H](CC(C)C)C(=O)N[C@@H](CC(C)C)C(=O)N[C@H](C(=O)N[C@H](C(=O)N[C@@H](CC(C)C)C(=O)N[C@H](C(=O)N[C@H](C(=O)N[C@H](C(=O)O)C(C)C)C(C)C)[C@@H](C)O)C(C)C)[C@@H](C)O)[C@@H](C)O)[C@@H](C)O", "note": "[RP23] (H-KKKK[AEEA]MTPGTQSPFFLLLLLTVLTVV-OH)", "values": [{"measurement": "expression of surface activation markers", "setting": "[1]; LPS stimulation", "result": "reduced"}, {"measurement": "secretion of inflammatory chemokines", "setting": "[1]; data not shown", "result": "reduced the secretion of inflammatory chemokines"}, {"measurement": "penetration of human skin when topically applied", "setting": "[2]", "result": "able to penetrate the stratum corneum and basement membrane"}, {"measurement": "adverse reactions", "setting": "mice", "result": "No adverse reactions of any kind"}, {"measurement": "MHCII expression on DC in the bronchoalveolar space", "setting": "CD11c+ dendritic cells; [3]", "result": "also on DC in the bronchoalveolar space"}, {"measurement": "MHCII expression on lung DC", "setting": "CD11c+ dendritic cells; [3]", "result": "reduced MHCII expression on lung DC"}, {"measurement": "MHCII expression on DC in the lung tissue", "setting": "CD11c+ dendritic cells; naive mice, 24 hours after intra-nasal instillation", "result": "substantially reduced"}, {"measurement": "inflammation in the ears (ear thickness)", "setting": "C57BL/6 mice", "result": "reduced inflammation in the ears"}]}
